Measurements from PubChem BioAssay (NCI).
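Method: 48-hour compound exposure of cells in 96-well plates, five concentrations, linear interpolation of endpoints. Here, GI50 denotes the concentration required for 50% inhibition of growth. TGI is the concentration that stops growth completely.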

Assays:
Assay in all cases: NCI anticancer screen, dose series, 48 h
MOLT-4 leukemia = system: MOLT-4 leukemia
EKVX NSCLC = system: EKVX NSCLC
A549 NSCLC = system: A549 NSCLC
PC-3 prostate = system: PC-3 prostate
NCI-H522 lung = system: NCI-H522 lung
HCC-2998 colon = system: HCC-2998 colon
SW-620 colon = system: SW-620 colon
SK-OV-3 ovarian = system: SK-OV-3 ovarian
SK-MEL-2 melanoma = system: SK-MEL-2 melanoma
OVCAR-4 ovarian = system: OVCAR-4 ovarian
HCT-15 colon = system: HCT-15 colon
RXF 393 renal = system: RXF 393 renal
SK-MEL-28 melanoma = system: SK-MEL-28 melanoma
COLO 205 colon = system: COLO 205 colon
HOP-92 NSCLC = system: HOP-92 NSCLC
MDA-MB-435 = system: MDA-MB-435
NCI/ADR-RES ovarian = system: NCI/ADR-RES ovarian
NCI-H23 lung = system: NCI-H23 lung
SK-MEL-5 melanoma = system: SK-MEL-5 melanoma
SNB-19 CNS = system: SNB-19 CNS
K-562 leukemia = system: K-562 leukemia
IGROV1 ovarian = system: IGROV1 ovarian
HOP-62 NSCLC = system: HOP-62 NSCLC
SNB-75 CNS = system: SNB-75 CNS
HCT-116 colon = system: HCT-116 colon
SN12C renal = system: SN12C renal
KM12 colon = system: KM12 colon
HS 578T breast = system: HS 578T breast
OVCAR-5 ovarian = system: OVCAR-5 ovarian

`CCCCCCCC(=O)SCC/C=C/[C@@H]1CC(=O)NCc2nc(cs2)C2=N[C@@](C)(CS2)C(=O)N[C@@H](C(C)C)C(=O)N1` was tested, and the GI50 (MOLT-4 leukemia) was < 11.2 nM, the TGI (MOLT-4 leukemia) was > 100000 nM and the GI50 (EKVX NSCLC) was 66.2 nM. For the same molecule, the TGI (EKVX NSCLC) was > 100000 nM, the GI50 (A549 NSCLC) was 27.3 nM and the TGI (A549 NSCLC) was 1530 nM. For the same molecule, the GI50 (PC-3 prostate) was < 12.5 nM, the TGI (PC-3 prostate) was > 100000 nM and the GI50 (NCI-H522 lung) was 27.8 nM. For the same molecule, the TGI (NCI-H522 lung) was 11100 nM, the GI50 (HCC-2998 colon) was 22.4 nM and the TGI (HCC-2998 colon) was 408 nM. For the same molecule, the GI50 (SW-620 colon) was 64.5 nM, the TGI (SW-620 colon) was 5570 nM and the GI50 (SK-OV-3 ovarian) was 14.9 nM. It also gave a TGI (SK-OV-3 ovarian) of 140 nM, a GI50 (SK-MEL-2 melanoma) of 30.4 nM and a TGI (SK-MEL-2 melanoma) of 597 nM. For the same molecule, the GI50 (OVCAR-4 ovarian) was 21.2 nM, the TGI (OVCAR-4 ovarian) was > 100000 nM and the GI50 (HCT-15 colon) was 3420 nM. The TGI (HCT-15 colon) was 97000 nM, the GI50 (RXF 393 renal) was < 11.2 nM and the TGI (RXF 393 renal) was 69.5 nM. For the same molecule, the GI50 (SK-MEL-28 melanoma) was 18.5 nM, the TGI (SK-MEL-28 melanoma) was 25800 nM and the GI50 (COLO 205 colon) was 11.4 nM. The TGI (COLO 205 colon) was 30.2 nM, the GI50 (HOP-92 NSCLC) was < 11.9 nM and the TGI (HOP-92 NSCLC) was 229 nM. For the same molecule, the GI50 (MDA-MB-435) was < 10 nM, the TGI (MDA-MB-435) was 1900 nM and the GI50 (NCI/ADR-RES ovarian) was 26700 nM. The TGI (NCI/ADR-RES ovarian) was > 100000 nM, the GI50 (NCI-H23 lung) was 39.9 nM and the TGI (NCI-H23 lung) was 20800 nM. It also gave a GI50 (SK-MEL-5 melanoma) of 23.3 nM, a TGI (SK-MEL-5 melanoma) of 977 nM and a GI50 (SNB-19 CNS) of 41.9 nM. The TGI (SNB-19 CNS) was > 41100 nM, the GI50 (K-562 leukemia) was 18.2 nM and the TGI (K-562 leukemia) was > 100000 nM. The GI50 (IGROV1 ovarian) was 15.3 nM, the TGI (IGROV1 ovarian) was 1800 nM and the GI50 (HOP-62 NSCLC) was 32.1 nM. For the same molecule, the TGI (HOP-62 NSCLC) was 13100 nM, the GI50 (SNB-75 CNS) was 31.2 nM and the TGI (SNB-75 CNS) was > 69000 nM. For the same molecule, the GI50 (HCT-116 colon) was < 10 nM, the TGI (HCT-116 colon) was 35 nM and the GI50 (SN12C renal) was 34 nM. For the same molecule, the TGI (SN12C renal) was > 100000 nM, the GI50 (KM12 colon) was 38.9 nM and the TGI (KM12 colon) was > 100000 nM. The GI50 (HS 578T breast) was 18.3 nM, the TGI (HS 578T breast) was 38000 nM and the GI50 (OVCAR-5 ovarian) was 11.8 nM.
